ChEMBL document CHEMBL4417631, “Oral peptide inhibitors of interleukin-23 receptor and their use to treat inflammatory bowel diseases” (2017)
Where a SMILES comes first, the peptide text is derived from it. [ ]: non-standard residue; d: D form. hLeu = CC(C)CC[C@H](N)C(=O)O

experiment: Inhibition of interleukin-23 binding to rat interleukin-23 receptor incubated for 2 hrs by competitive binding ELISA

Row | Compound | IC50 [µM]
1 | CC(=O)N[C@@H](CS)C(=O)N[C@@H](CCC(N)=O)C(=O)N[C@H](C(=O)N[C@@H](Cc1c[nH]c2ccccc12)C(=O)N[C@@H](CCC(N)=O)C(=O)N[C@@H](CS)C(=O)N[C@@H](Cc1ccc(O)cc1)C(=O)N[C@@H](Cc1c[nH]c2ccccc12)C(=O)NC(C)(C)C(=O)N[C@@H](CCC(=O)O)C(=O)N[C@@H](CC(N)=O)C(=O)NCC(N)=O)[C@@H](C)O | 0.034
2 | C[C@@H](O)[C@H](NC(=O)[C@H](CCC(N)=O)NC(=O)[C@@H](N)CS)C(=O)N[C@@H](Cc1c[nH]c2ccccc12)C(=O)N[C@@H](CCC(N)=O)C(=O)N[C@@H](CS)C(=O)N[C@@H](Cc1ccc(O)cc1)C(=O)N[C@@H](Cc1c[nH]c2ccccc12)C(=O)N[C@@H](CCCN)C(=O)N[C@@H](CN)C(=O)N[C@@H](Cc1ccccc1)C(=O)NCC(=O)NCCOCC(=O)N[C@H](CCCCN)C(N)=O | 0.276
3 | CC(=O)N[C@@H](CS)C(=O)N[C@@H](CCC(N)=O)C(=O)N[C@H](C(=O)N[C@@H](Cc1c[nH]c2ccccc12)C(=O)N[C@@H](CCC(N)=O)C(=O)N[C@@H](CS)C(=O)N[C@@H](Cc1ccc(O)cc1)C(=O)N[C@@H](Cc1c[nH]c2ccccc12)C(=O)N[C@@H](CCCNC(=N)N)C(=O)N[C@H](C(=O)N[C@@H](Cc1ccccc1)C(=O)NCC(=O)NCCOCC(=O)N[C@H](CCCCN)C(N)=O)C(C)C)[C@@H](C)O | 0.062
4 | CC(=O)N[C@@H](CS)C(=O)N[C@@H](CCC(N)=O)C(=O)N[C@H](C(=O)N[C@@H](Cc1c[nH]c2ccccc12)C(=O)N[C@@H](CCC(N)=O)C(=O)N[C@@H](CS)C(=O)N[C@@H](Cc1ccc2ccccc2c1)C(=O)N[C@@H](Cc1c[nH]c2ccccc12)C(=O)N[C@@H](CCC(C)C)C(=O)N[C@@H](CCC(=O)O)C(=O)N[C@@H](CC(N)=O)C(=O)NCC(N)=O)[C@@H](C)O | 0.073
5 | CC(=O)N[C@@H](CS)C(=O)N[C@H](C(=O)N[C@H](C(=O)N[C@@H](Cc1c[nH]c2ccccc12)C(=O)N[C@@H](CCC(N)=O)C(=O)N[C@@H](CS)C(=O)N[C@@H](Cc1ccc(O)cc1)C(=O)N[C@@H](Cc1c[nH]c2ccccc12)C(=O)N[C@@H](CCC(C)C)C(=O)N[C@@H](CCC(=O)O)C(=O)N[C@@H](CC(N)=O)C(=O)NCC(N)=O)[C@@H](C)O)[C@@H](C)O (Ac-CTTWQCYW[hLeu]ENG-NH2) | 0.028
6 | CC(=O)N[C@@H](CS)C(=O)N[C@@H](CCC(N)=O)C(=O)N[C@H](C(=O)N[C@@H](Cc1c[nH]c2ccccc12)C(=O)N[C@@H](CCC(N)=O)C(=O)N[C@@H](CS)C(=O)N[C@@H](Cc1ccc(O)cc1)C(=O)N[C@@H](Cc1cccc2ccccc12)C(=O)N[C@@H](CCC(C)C)C(=O)N[C@@H](CCC(=O)O)C(=O)N[C@@H](CC(N)=O)C(=O)NCC(N)=O)[C@@H](C)O | 0.037
7 | CC(=O)N[C@@H](Cc1ccccc1)C(=O)N[C@@H](CS)C(=O)N[C@@H](CCC(N)=O)C(=O)N[C@H](C(=O)N[C@@H](Cc1c[nH]c2ccccc12)C(=O)N[C@@H](CCC(N)=O)C(=O)N[C@@H](CS)C(=O)N[C@@H](Cc1ccc(O)cc1)C(=O)N[C@@H](Cc1c[nH]c2ccccc12)C(=O)N[C@@H](CCC(C)C)C(=O)N[C@@H](CCC(=O)O)C(=O)N[C@@H](CC(N)=O)C(=O)NCC(N)=O)[C@@H](C)O | 0.025
8 | CC(=O)N[C@@H](CS)C(=O)N[C@@H](CCCNC(=N)N)C(=O)N[C@H](C(=O)N[C@@H](Cc1c[nH]c2ccccc12)C(=O)N[C@@H](CCC(N)=O)C(=O)N[C@@H](CS)C(=O)N[C@@H](Cc1ccc(O)cc1)C(=O)N[C@@H](Cc1c[nH]c2ccccc12)C(=O)N[C@@H](CCCNC(=N)N)C(=O)N[C@@H](CCC(=O)O)C(=O)N[C@@H](CC(N)=O)C(=O)NCC(=O)N[C@@H](C)C(=O)N[C@H](CCCCN)C(N)=O)[C@@H](C)O | 0.086
9 | CC(=O)N[C@@H](CC(C)C)C(=O)N[C@@H](CS)C(=O)N[C@@H](CCC(N)=O)C(=O)N[C@H](C(=O)N[C@@H](Cc1c[nH]c2ccccc12)C(=O)N[C@@H](CCC(N)=O)C(=O)N[C@@H](CS)C(=O)N[C@@H](Cc1ccc(O)cc1)C(=O)N[C@@H](Cc1c[nH]c2ccccc12)C(=O)N[C@@H](CCC(C)C)C(=O)N[C@@H](CCC(=O)O)C(=O)N[C@@H](CC(N)=O)C(=O)NCC(N)=O)[C@@H](C)O | 0.026
10 | CC(=O)N[C@@H](CS)C(=O)N[C@@H](CCC(N)=O)C(=O)N[C@H](C(=O)N[C@@H](Cc1c[nH]c2ccccc12)C(=O)N[C@@H](CCC(N)=O)C(=O)N[C@@H](CS)C(=O)N[C@@H](Cc1ccc(O)cc1)C(=O)N[C@@H](Cc1c[nH]c2ccccc12)C(=O)N[C@@H](CCC(C)C)C(=O)N[C@@H](CCC(=O)O)C(=O)N[C@@H](CC(N)=O)C(=O)N[C@@H](Cc1ccccc1)C(N)=O)[C@@H](C)O | 0.182
11 | CC(=O)N[C@@H](CS)C(=O)N[C@@H](C)C(=O)N[C@@H](CC(=O)O)C(=O)N[C@@H](Cc1c[nH]c2ccccc12)C(=O)N[C@H](C(=O)N[C@@H](CS)C(=O)N[C@@H](Cc1ccc(O)cc1)C(=O)N[C@@H](Cc1c[nH]c2ccccc12)C(=O)N[C@@H](CCCNC(=N)N)C(=O)N[C@@H](CCCCN)C(=O)N[C@@H](Cc1ccccc1)C(=O)NCC(=O)NCCC(=O)N[C@H](CCCCN)C(N)=O)C(C)C | 0.033
12 | CC(=O)N[C@@H](CS)C(=O)N[C@@H](CCCNC(=N)N)C(=O)N[C@H](C(=O)N[C@@H](Cc1c[nH]c2ccccc12)C(=O)N[C@@H](CCC(N)=O)C(=O)N[C@@H](CS)C(=O)N[C@@H](Cc1ccc(O)cc1)C(=O)N[C@@H](Cc1c[nH]c2ccccc12)C(=O)N[C@@H](CC(C)C)C(=O)N[C@@H](CCCNC(=N)N)C(=O)N[C@@H](CC(C)C)C(=O)NCC(=O)N[C@@H](CC(=O)O)C(=O)N[C@@H](CCC(=O)O)C(=O)NCC(N)=O)[C@@H](C)O (Ac-CRTWQCYWLRLGDEG-NH2) | 0.483
13 | CC(=O)N[C@@H](CS)C(=O)N[C@@H](CC(N)=O)C(=O)N[C@H](C(=O)N[C@@H](Cc1c[nH]c2ccccc12)C(=O)N[C@@H](CCC(N)=O)C(=O)N[C@@H](CS)C(=O)N[C@@H](Cc1ccc(O)cc1)C(=O)N[C@@H](Cc1c[nH]c2ccccc12)C(=O)N[C@@H](CCCNC(=N)N)C(=O)N[C@H](C(=O)N[C@@H](Cc1ccccc1)C(=O)NCC(=O)NCCOCC(=O)N[C@H](CCCCN)C(N)=O)C(C)C)[C@@H](C)O | 0.079
14 | CC(=O)N[C@@H](CS)C(=O)N[C@@H](CCCN)C(=O)N[C@H](C(=O)N[C@@H](Cc1c[nH]c2ccccc12)C(=O)N[C@@H](CCC(N)=O)C(=O)N[C@@H](CS)C(=O)N[C@@H](Cc1ccc(O)cc1)C(=O)N[C@@H](Cc1c[nH]c2ccccc12)C(=O)N[C@@H](CCCNC(=N)N)C(=O)N[C@H](C(=O)N[C@@H](Cc1ccccc1)C(=O)NCC(=O)NCCOCC(=O)N[C@H](CCCCN)C(N)=O)C(C)C)[C@@H](C)O | 0.069
15 | CC(=O)N[C@@H](CS)C(=O)N(C)[C@@H](CCC(N)=O)C(=O)N[C@H](C(=O)N[C@@H](Cc1c[nH]c2ccccc12)C(=O)N[C@@H](CCC(N)=O)C(=O)N[C@@H](CS)C(=O)N[C@@H](Cc1ccc(O)cc1)C(=O)N[C@@H](Cc1c[nH]c2ccccc12)C(=O)N[C@@H](CCCNC(=N)N)C(=O)N[C@H](C(=O)N[C@@H](Cc1ccccc1)C(=O)NCC(=O)NCCC(=O)N[C@H](CCCCN)C(N)=O)C(C)C)[C@@H](C)O | 0.085
16 | CC(=O)N[C@@H](CS)C(=O)N[C@@H](CCC(N)=O)C(=O)N[C@H](C(=O)N[C@@H](Cc1c[nH]c2ccccc12)C(=O)N[C@@H](CCC(N)=O)C(=O)N[C@@H](CS)C(=O)N[C@@H](Cc1ccc(O)cc1)C(=O)N[C@@H](Cc1c[nH]c2ccccc12)C(=O)N[C@@H](CCC(C)C)C(=O)N[C@@H](CCC(=O)O)C(=O)N[C@@H](CCC(=O)O)C(=O)NCC(N)=O)[C@@H](C)O (Ac-CQTWQCYW[hLeu]EEG-NH2) | 0.053
